System: alternative complement pathway (AP)
Test: Functional capacity of the alternative pathway on LPS-coated surface
Format: biochemical, human
Details: 10 mM EDTA present in the dilution buffer; data not shown
Procedure: The protocol for the functional capacity of the AP was similar to the method for the CP assay, with the following modification: Lipopolysaccharide W S. typhimurium (10 ug/ml) (lot. 51974, DICO LABORAORIES, US) was coated in 1M NaCl and used as activating surface for AP activation. The serum samples were diluted in dilution buffer with 4 mM Mg^2+, 10 mM EGTA, and 0.05% Tween-20 and were incubated for 60 min at 37° C. The C3, properdin and C9 deposition was measured by adding 100 μl of mAbs.
The influence of PAS on complement activation via the AP was also analyzed. NHS and C2-deficient serum diluted in dilution buffer containing 4 mM Mg^2+ and 10 mM EGTA was incubated in microtiter-wells (PolySorp), coated with LPS as described above in the presence or absence of PAS and deposition of complement components (C3b/C3bi, properdin and C9) was detected.
Various concentrations of PAS were used in order to determine a dose-response curve for PAS. Experiments were performed as described above only with varying the amount of PAS added to the sample.

Q: With `O=C(O)CN(CCN(CC(=O)O)CC(=O)O)CC(=O)O` [EDTA] as the molecule, how does the “Deposition of C3, properdin and C9 (all three complement components)” value read?
A: reduced to background levels

Reference: US8852869B2, “Method of determining functional deficiencies in the complement system” (Immunobond ApS, priority 2007, dated 2014)
